Test results published in ChEMBL document CHEMBL4396938, “New amide linked dimeric 1,2,3-triazoles bearing aryloxy scaffolds as a potent antiproliferative agents and EGFR tyrosine kinase phosphorylation inhibitors” (Bioorg Med Chem Lett, 2019).

Assays:
A549 [1] = assay: Antiproliferative activity against human A549 cells assessed as growth inhibition at 1 uM incubated for 24 hrs by MTT assay (reference value: 0%); assay type: functional; details: A549, 24 h, read-out: GI
MCF7 [2] = assay: Antiproliferative activity against human MCF7 cells assessed as growth inhibition at 1 uM incubated for 24 hrs by MTT assay (reference value: 0%); assay type: functional; details: MCF7, 24 h, read-out: GI
A549 [3] = assay: Antiproliferative activity against human A549 cells assessed as growth inhibition at 10 uM incubated for 24 hrs by MTT assay (reference value: 0%); assay type: functional; details: A549, 24 h, read-out: GI
A549 [4] = assay: Antiproliferative activity against human A549 cells assessed as reduction in cell growth incubated for 24 hrs by MTT assay; assay type: functional, cell-based; details: A549, 24 h
MCF7 [5] = assay: Antiproliferative activity against human MCF7 cells assessed as growth inhibition at 0.1 uM incubated for 24 hrs by MTT assay (reference value: 0%); assay type: functional; details: MCF7, 24 h, read-out: GI
A549 [6] = assay: Antiproliferative activity against human A549 cells assessed as growth inhibition at 0.1 uM incubated for 24 hrs by MTT assay (reference value: 0%); assay type: functional; details: A549, 24 h, read-out: GI
MCF7 [7] = assay: Antiproliferative activity against human MCF7 cells assessed as growth inhibition at 10 uM incubated for 24 hrs by MTT assay (reference value: 0%); assay type: functional; details: MCF7, 24 h, read-out: GI
[8] = molecular target: Epidermal growth factor receptor (Homo sapiens) (UniProt P00533); details: MCF7, at 10 µM
Description: Inhibition of EGFR in human MCF7 cells assessed as reduction in EGFR phosphorylation at 10 uM incubated for 48 hrs by Western blot analysis

MCF7 [9] = assay: Antiproliferative activity against human MCF7 cells assessed as reduction in cell growth incubated for 24 hrs by MTT assay; assay type: functional, cell-based; details: MCF7, 24 h
MCF-10A = assay: Cytotoxicity against human MCF10A cells assessed as reduction in cell viability incubated for 24 hrs by MTT assay; assay type: ADME, cell-based
[10] = Selectivity index, ratio of cytotoxic IC50 for human MCF10A cells to antiproliferative IC50 for human MCF7 cells; assay type: toxicity; details: MCF10A cells and MCF7 cells, read-out: Ratio IC50

Sequence of Epidermal growth factor receptor (Homo sapiens) (P00533 whole entry): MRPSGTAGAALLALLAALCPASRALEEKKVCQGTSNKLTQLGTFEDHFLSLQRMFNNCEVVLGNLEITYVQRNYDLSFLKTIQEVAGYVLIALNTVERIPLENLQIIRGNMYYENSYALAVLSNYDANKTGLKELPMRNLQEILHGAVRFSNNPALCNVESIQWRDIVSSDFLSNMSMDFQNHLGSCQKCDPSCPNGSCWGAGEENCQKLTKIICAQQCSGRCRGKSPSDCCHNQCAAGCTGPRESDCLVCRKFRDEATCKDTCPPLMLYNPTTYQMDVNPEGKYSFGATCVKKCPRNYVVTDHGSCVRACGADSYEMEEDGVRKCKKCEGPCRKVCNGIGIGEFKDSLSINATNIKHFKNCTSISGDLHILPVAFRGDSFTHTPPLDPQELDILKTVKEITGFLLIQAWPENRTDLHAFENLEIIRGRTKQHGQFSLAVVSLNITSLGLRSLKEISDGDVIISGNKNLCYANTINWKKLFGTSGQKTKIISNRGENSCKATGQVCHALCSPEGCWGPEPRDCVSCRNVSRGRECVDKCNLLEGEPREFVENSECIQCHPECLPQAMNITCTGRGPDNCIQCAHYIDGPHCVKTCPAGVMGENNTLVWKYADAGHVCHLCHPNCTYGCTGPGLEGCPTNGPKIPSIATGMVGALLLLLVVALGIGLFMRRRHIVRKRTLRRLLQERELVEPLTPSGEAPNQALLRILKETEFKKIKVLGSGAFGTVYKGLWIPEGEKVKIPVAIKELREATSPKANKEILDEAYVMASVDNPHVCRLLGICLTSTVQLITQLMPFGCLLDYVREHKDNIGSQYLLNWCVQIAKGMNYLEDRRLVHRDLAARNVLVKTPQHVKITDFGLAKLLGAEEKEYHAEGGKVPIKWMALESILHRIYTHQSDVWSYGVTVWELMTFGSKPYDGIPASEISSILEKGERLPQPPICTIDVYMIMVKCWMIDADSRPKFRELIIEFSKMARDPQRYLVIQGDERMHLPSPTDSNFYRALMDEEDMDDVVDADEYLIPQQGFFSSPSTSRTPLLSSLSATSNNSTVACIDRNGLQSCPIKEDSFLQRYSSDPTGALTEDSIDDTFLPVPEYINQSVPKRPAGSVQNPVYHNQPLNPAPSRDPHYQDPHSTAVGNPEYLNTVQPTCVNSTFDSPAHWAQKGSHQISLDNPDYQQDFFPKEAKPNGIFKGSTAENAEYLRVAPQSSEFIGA

Row | Compound | inhibition of growth at 1 µM (A549 [1]) [%] | inhibition of growth at 1 µM (MCF7 [2]) [%] | inhibition of growth at 10 µM (A549 [3]) [%] | IC50 (A549 [4]) [µM] | inhibition of growth at 0.1 µM (MCF7 [5]) [%] | inhibition of growth at 0.1 µM (A549 [6]) [%] | inhibition of growth at 10 µM (MCF7 [7]) [%] | inhibition [8] [%] | IC50 (MCF7 [9]) [µM] | IC50 (MCF-10A) [µM] | selectivity ratio [10]
1 | O=C(Cn1cc(COc2cccc(OCc3cn(CC(=O)Nc4ccccc4)nn3)c2)nn1)Nc1ccccc1 | 10.8 | 13.8 | 69.2 | 7.05 | 14.5 | 11.4 | 22.1 |  |  |  | 
2 | Cc1ccc(NC(=O)Cn2cc(COc3ccccc3OCc3cn(CC(=O)Nc4ccc(C)cc4)nn3)nn2)cc1 | 12.8 | 25.7 | 86.6 | 5.56 | 25.4 | 8.92 | 63.8 | 28.2 | 6.7 |  | 
3 | O=C(Cn1cc(COc2ccccc2OCc2cn(CC(=O)Nc3ccc([N+](=O)[O-])cc3)nn2)nn1)Nc1ccc([N+](=O)[O-])cc1 | 10.7 | 15 | 11.8 |  | 14.2 | 5.9 | 12.7 |  |  |  | 
4 | O=C(Cn1cc(COc2ccccc2OCc2cn(CC(=O)Nc3ccccc3)nn2)nn1)Nc1ccccc1 | 6.8 | 12.1 | 44.3 |  | 11.3 | 0 | 12.9 |  |  |  | 
5 | O=C(Cn1cc(COc2cccc(OCc3cn(CC(=O)Nc4ccc([N+](=O)[O-])cc4)nn3)c2)nn1)Nc1ccc([N+](=O)[O-])cc1 | 42.4 | 4.58 | 98.6 | 2.22 | 4.96 | 25.5 | 5.44 |  |  |  | 
6 | O=C(Cn1cc(COc2cccc(OCc3cn(CC(=O)Nc4ccc(Cl)cc4)nn3)c2)nn1)Nc1ccc(Cl)cc1 | -0.17 | 31.7 | 3.36 |  | 16.2 | 1.16 | 64 | 32.6 | 6.13 |  | 
7 | COc1ccc(NC(=O)Cn2cc(COc3ccccc3OCc3cn(CC(=O)Nc4ccc(OC)cc4)nn3)nn2)cc1 | 6.56 | 24 | 15.4 |  | 18.4 | 5.57 | 96 | 88.3 | 4.18 | 33.4 | 8
8 | COc1ccc(NC(=O)Cn2cc(COc3cccc(OCc4cn(CC(=O)Nc5ccc(OC)cc5)nn4)c3)nn2)cc1 | 42.8 | 11.1 | 94.5 | 2.34 | 11.9 | 7.26 | 33.3 |  |  |  | 
9 | Cc1ccc(NC(=O)Cn2cc(COc3cccc(OCc4cn(CC(=O)Nc5ccc(C)cc5)nn4)c3)nn2)cc1 | 7.51 | 9.47 | 34.1 |  | 5.16 | 0 | 82.6 | 76.9 | 6.01 |  | 
10 | O=C(Cn1cc(COc2ccccc2OCc2cn(CC(=O)Nc3ccc(Cl)cc3)nn2)nn1)Nc1ccc(Cl)cc1 | 25.4 | 42.9 | 73.5 | 5.61 | 39 | 1.89 | 79.9 | 72.7 | 2.8 | 14 | 5
